Source: publication PMC3002971, “A Universal Approach to Eliminate Antigenic Properties of Alpha-Gliadin Peptides in Celiac Disease” (PLoS ONE, 2010)

Tests used:
DQ8-Glia-α1 T cell clone = assay: T cell proliferation assay, DQ8-Glia-α1 T cell clone; format: cell-based, human; set-up: key: ± = 100 times reduced T cell stimulation compared to the ‘canonical’ epitope; - = 1000 times reduced T cell stimulation compared to the ‘canonical’ epitope; conditions: 3H-thymidine proliferation, triplicate; deamidated peptides, antigen 1–10 µg/ml; stimulation compared to canonical epitope
Protocol: (§1) Gluten specific T cell clones were generated from small intestinal biopsies of celiac disease patients as described before, [11], [12]. All patients signed an informed consent form which was approved by the hospital ethics committee. Proliferation assays were performed in triplicate in 150 µl Iscove's Modified Dulbecco's Medium (Bio Whittaker, Verviers, Belgium) with 10% pooled normal human serum in 96 well flat-bottom plates using 2×10^4 gluten specific T cells stimulated with […] irradiated HLA-DQ2-matched allogeneic peripheral blood mononuclear cells (3000 rad) in the presence or absence of antigen (1–10 µg/ml), [11], [12]. After 2 days ^3H-thymidine (0.5 µCi/well) was added to the cultures, and 18–20 hours thereafter the cells were harvested. ^3H-thymidine incorporation in the T cell DNA was determined with a liquid scintillation counter (1205 Betaplate Liquid Scintillation Counter, LKB Instruments, Gaithersburg, MD). A binding assay was performed as described previously.

[1] = cited from earlier work
Text: In addition to the canonical epitope motifs, a large series of sequence variants with one or two amino acid substitutions were detected ( Tables 2 , 3 , 4 , 5 ). The large majority of the Gli-B2 gliadins contained sequence variants of the DQ2-Glia-α1, DQ2-Glia-α2, and DQ2-Glia-α3 epitopes with two amino acid substitutions. Furthermore, Gli-A2 transcripts harbored a proline to serine substitution at position 8 (p8) of the DQ2-Glia-α2 epitope and a sequence variant (QGSFRP(S/F)QQN, amino acid substitution in bold) of the DQ8-Glia-α1 epitopes. Importantly, the 33-mer peptide ([…] ...

T cell = conditions: cited from earlier work
Text: Many gluten peptides with T cell stimulatory properties have now been identified. Such peptides have been found in wheat α-, γ-, and ω-gliadins as well as in low molecular weight (LMW) and high molecular weight (HMW) glutenins [8]–[14]. […] An α-gliadin derived 33-mer peptide (amino acid sequence […]) was identified that encodes six partially o ...

[2] = system: DQ2-Glia-α1 specific T cell clones; assay: T cell proliferation assay, DQ2-Glia-α1 specific T cell clone; format: cell-based, human; set-up: key: ± = 100 times reduced T cell stimulation compared to the ‘canonical’ epitope; - = 1000 times reduced T cell stimulation compared to the ‘canonical’ epitope; conditions: 3H-thymidine proliferation, triplicate; deamidated 14- to 17-mer peptides, antigen 1–10 µg/ml; stimulation compared to canonical epitope
Protocol: as §1

[3] = system: DQ2-Glia-α2 specific T cell clones; assay: T cell proliferation assay, DQ2-Glia-α2 specific T cell clone; format: cell-based, human; set-up: key: ± = 100 times reduced T cell stimulation compared to the ‘canonical’ epitope; - = 1000 times reduced T cell stimulation compared to the ‘canonical’ epitope; conditions: 3H-thymidine proliferation, triplicate; deamidated 14- to 17-mer peptides, antigen 1–10 µg/ml; stimulation compared to canonical epitope
Protocol: as §1

**Q.** For LGEGFFQPSQENP [Peptide 20], which “DQ8-Glia-α1 T cell clone” value (DQ8-Glia-α1 T cell clone) is on record?
**A.** Its value is “-”.

**Q.** With “LQLQPFPQPQLPYPQPQLPYPQPQLPYPQPQPF [33-mer peptide]” as the substance, how does the “resistance to degradation in the gastrointestinal tract” value [1] read?
**A.** The value was “highly resistant to degradation”.

**Q.** What about the “T cell stimulatory properties” value (T cell) of the same substance?
**A.** The value was “very potent T cell stimulatory properties”.

**Q.** For QPQPFP-PELPYPQTQP [Peptide 15], which “Glia-α1 T cell clone” value [2] is on record?
**A.** Its value is “-”.

**Q.** What about the “Glia-α2 T cell clone” value [3] of the same substance?
**A.** Its value is “-”.
